Earlier results in paper PMC7904743, “WIDOCK: a reactive docking protocol for virtual screening of covalent inhibitors” (Journal of Computer-Aided Molecular Design, 2021).
Where two headings read alike, the source gives them in different places.

What was measured:
[1] = thiol reactivity, cited from earlier work
[2] = tested on: NUDT7; details: protein labeling at 200 μM; experimental actives if % labeling higher than 50%; cited from earlier work
[3] = tested on: OTUB2; details: experimental actives if % labeling higher than 50%, cited from earlier work
[4] = natural log of average rate constant k
[5] = natural logarithm of average rate constant
[6] = natural log of average kinetic rate constant
[7] = natural log of average rate constant

Compound | ln(avg k) [1, 4] | ln(avg k) [1, 5] | NUDT7 % labeling [2] | OTUB2 % labeling [3] | ln(avg k) [1, 6] | ln(avg k) [1, 7] | OTUB2 % labeling ([3]; OTUB2 protein labeling)
O=C(CCl)Nc1cc([N+](=O)[O-])ccc1Cl [PCM-0102366, O=C(CCl)Nc1cc([N+](=O)[O-])ccc1Cl] | -15.888 | -15.888 | 20% | 27% |  |  | 
O=C(CCl)N1CCN(c2ccccn2)CC1 [PCM-0102213, O=C(CCl)N1CCN(c2ccccn2)CC1] | -15.928 | -15.928 | 0% | 0% |  |  | 
O=C(CCl)N1CCN(S(=O)(=O)c2ccccc2)CC1 [PCM-0102468, O=C(CCl)N1CCN(S(=O)(=O)c2ccccc2)CC1] | -15.364 | -15.364 | 0% | 8% |  |  | 
O=C(CCl)Nc1cccc(-c2nnc3n2CCCCC3)c1 [PCM-0102181, O=C(CCl)Nc1cccc(-c2nnc3n2CCCCC3)c1] | -15.929 | -15.929 | 0% | 0% |  |  | 
O=C(CCl)Nc1cccc2ccccc12 [PCM-0102396, O=C(CCl)Nc1cccc2ccccc12] | -16.060 | -16.060 | 12% | 54% |  |  | 
Cc1sc(NC(=O)CCl)c(C#N)c1C [PCM-0102202, Cc1sc(NC(=O)CCl)c(C#N)c1C] | -15.804 | -15.804 | 0% | 0% |  |  | 
O=C(CCl)Nc1ccc(Cl)cc1Cl [PCM-0102914, O=C(CCl)Nc1ccc(Cl)cc1Cl] |  |  | 22% |  | -16.384 | -16.384 | 14%
O=C(CCl)N1CCOCC1C1CC1 (stereo not drawn) [PCM-0102870, O=C(CCl)N1CCOCC1C1CC1] |  |  | 17% |  | -15.541 | -15.541 | 0%
CC(=O)c1oc2ccccc2c1NC(=O)CCl [PCM-0102918, CC(=O)c1oc2ccccc2c1NC(=O)CCl] |  |  | 39% |  | -15.842 | -15.842 | 0%
CC(=O)N1CCC(NC(=O)CCl)CC1 [PCM-0102932, CC(=O)N1CCC(NC(=O)CCl)CC1] |  |  | 0% |  | -16.417 | -16.417 | 7%
N#Cc1c(NC(=O)CCl)sc2c1CCC2 [PCM-0102452, N#Cc1c(NC(=O)CCl)sc2c1CCC2] | -16.077 | -16.077 | 0% | 7% |  |  | 
CCc1ccccc1NC(=O)CCl [PCM-0102369, CCc1ccccc1NC(=O)CCl] | -16.517 | -16.517 | 0% | 0% |  |  | 
Cc1ccc(S(=O)(=O)N2CCN(C(=O)CCl)CC2)c(C)c1 [PCM-0102628, Cc1ccc(S(=O)(=O)N2CCN(C(=O)CCl)CC2)c(C)c1] | -15.546 | -15.546 | 0% | 0% |  |  | 
Cc1ccsc1CN(C)C(=O)CCl [PCM-0102785, Cc1ccsc1CN(C)C(=O)CCl] |  |  | 20% |  | -15.849 | -15.849 | 0%
O=C(CCl)Nc1nc(-c2c[nH]c3ccccc23)cs1 [PCM-0102233, O=C(CCl)Nc1nc(-c2c[nH]c3ccccc23)cs1] | -15.707 | -15.707 | 26% | 25% |  |  | 
